Test results published in ChEMBL document CHEMBL1201862, “PubChem BioAssay data set” (2004).
Activity calls are given as the source filed them.

Experiments:
Cytochrome P450 3A4 = Cytochrome P450 3A4 (Homo sapiens, UniProt P08684);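 also: CYP3A4 tested as one member of a cytochrome P450 panel screen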
Prothrombin = Prothrombin (Homo sapiens, UniProt P00734); assay: Thrombin 1536 HTS Dose Response Confirmation. [Related pubchem assays: 1046 (Thrombin 1536 HTS; hits were confirmed in this assay)]; format: functional
Caspase-6 = target: T1, Caspase-6 (Homo sapiens, UniProt P55212); assay: inhibition of CASP6 peptide cleavage – biochemical, VEID-R110 fluorescence, cherry-pick, dose response (AID 720632)
T1 sequence (P55212 whole entry): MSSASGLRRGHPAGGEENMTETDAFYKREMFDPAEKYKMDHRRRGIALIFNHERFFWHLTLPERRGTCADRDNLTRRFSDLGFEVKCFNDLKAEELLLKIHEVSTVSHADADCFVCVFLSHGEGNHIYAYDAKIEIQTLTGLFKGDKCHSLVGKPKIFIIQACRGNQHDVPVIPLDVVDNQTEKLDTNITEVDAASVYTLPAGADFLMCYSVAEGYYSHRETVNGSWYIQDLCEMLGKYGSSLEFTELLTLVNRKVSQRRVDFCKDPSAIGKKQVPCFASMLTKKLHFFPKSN

[1] = Luminescence Cell-Based Dose Retest to Confirm Inhibitors of Cancer Stem Cells. [Related pubchem assays (depositor defined):AID2717, AID2721]; format: functional; settings: Homo sapiens
[2] = viability of uninfected HEp-2 cells – cell-based, HTS, cytotoxicity control for RSV inhibitor project, dose response (AID 2410); format: functional; settings: human respiratory syncytial virus
[3] = Luminescence Cell-Based Dose Response HTS to Identify Activators of Luciferase Translation or Activity in H4 […] Cells. [Related pubchem assays: 1829 (Project Summary), 1814 (Primary HTS)]; format: functional
H4 = assay: Luminescence Cell-Based Dose Response HTS to Identify Activators of 5'UTR Stem-Loop Driven Prion Protein mRNA Translation in H4 Neuroglioblastoma Cells. [Related pubchem assays: 1829 (Project Summary), 1814 (Primary HTS)]; format: functional; settings: Homo sapiens
[4] = Luminescence Cell-Based Dose Confirmation HTS to Identify Activators of 5'UTR Stem-Loop Driven Alpha-Synuclein mRNA Translation in H4 Neuroglioblastoma Cells. [Related pubchem assays: 1829 (Project Summary), 1814 (Primary HTS)]; format: functional
[5] = M. tuberculosis H37Rv growth inhibitors, H37Rv strain (AID 1626); format: functional
[6] = target: Mitogen-activated protein kinase 10 (Homo sapiens, UniProt P53779); assay: Dose response biochemical screening assay for inhibitors of c-Jun N-Terminal Kinase 3 (JNK3). [Related pubchem assays: 746 ]
Chain of Mitogen-activated protein kinase 10 (P53779 whole entry): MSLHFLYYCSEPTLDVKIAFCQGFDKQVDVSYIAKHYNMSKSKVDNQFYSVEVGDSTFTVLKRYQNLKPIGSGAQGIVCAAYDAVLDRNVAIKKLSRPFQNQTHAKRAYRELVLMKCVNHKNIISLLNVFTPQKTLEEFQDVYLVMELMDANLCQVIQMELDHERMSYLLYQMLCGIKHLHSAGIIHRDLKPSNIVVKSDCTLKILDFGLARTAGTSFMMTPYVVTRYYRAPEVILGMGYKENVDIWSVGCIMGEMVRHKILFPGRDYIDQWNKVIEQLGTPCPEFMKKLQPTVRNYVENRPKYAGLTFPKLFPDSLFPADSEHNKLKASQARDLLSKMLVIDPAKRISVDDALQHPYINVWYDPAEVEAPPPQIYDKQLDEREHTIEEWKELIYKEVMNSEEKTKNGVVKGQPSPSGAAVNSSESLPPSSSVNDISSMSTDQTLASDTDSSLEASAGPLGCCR

Chain of Cytochrome P450 3A4 (P08684 whole entry): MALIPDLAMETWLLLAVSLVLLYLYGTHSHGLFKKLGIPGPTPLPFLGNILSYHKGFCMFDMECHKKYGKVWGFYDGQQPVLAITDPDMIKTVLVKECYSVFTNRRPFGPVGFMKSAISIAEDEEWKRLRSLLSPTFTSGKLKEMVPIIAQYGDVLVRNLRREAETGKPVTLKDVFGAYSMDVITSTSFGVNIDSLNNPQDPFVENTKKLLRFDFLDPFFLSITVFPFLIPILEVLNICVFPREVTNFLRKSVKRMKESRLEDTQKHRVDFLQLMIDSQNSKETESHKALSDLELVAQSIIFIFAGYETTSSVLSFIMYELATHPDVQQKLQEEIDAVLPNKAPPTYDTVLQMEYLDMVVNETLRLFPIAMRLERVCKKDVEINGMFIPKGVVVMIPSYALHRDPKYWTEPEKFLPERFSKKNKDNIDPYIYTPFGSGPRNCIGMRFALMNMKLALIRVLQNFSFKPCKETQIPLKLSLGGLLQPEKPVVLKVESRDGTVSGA

COC(=O)CSc1nnc(-c2ccccc2OC)n1-c1ccc(C)cc1
AC50 (Cytochrome P450 3A4): 15.8 µM (inconclusive) | IC50 (Prothrombin): > 50 µM (not active)

Cc1ccc(C)n1-c1sc2c(c1C(=O)O)CCCC2
AC50 (Caspase-6): 6.02 µM (active)

COCCNc1cc(-c2ccccc2)nc2cc(-c3cccc(F)c3)nn12
AC50 [1]: 6.74 µM (active) | CC50 [2]: 35.1 µM (active) | IC50 (cells): 41.8 µM (active)

O=C1c2ccccc2C(=O)c2c([N+](=O)[O-])ccc(O)c21
AC50 (Caspase-6): 9.76 µM (active)

COc1ccc(NC(=O)n2nc(OC(=O)c3cccs3)cc2N)cc1
EC50 [3]: 12.1 µM (active) | EC50 (H4): 28.1 µM (active) | EC50 [4]: > 60 µM (not active) | IC50 (Prothrombin): 12.7 µM (active)

CC(C(=O)N=Nc1c(O)[nH]c2ccccc12)n1cnc2ccccc2c1=O (configuration not stated)
IC50 (cells): > 50 µM (active)

CCN(Cc1nc(O)c2ccccc2n1)C(=O)c1cc(C2CC2)nn1-c1ccccc1
IC50 (cells): 8.79 µM (active)

Nc1nc(COc2ccc(Cl)cc2)cs1
IC50 [5]: > 100 µM (active)

O=C(CCCCCn1c(SCC(=O)c2ccccc2)nc2ccccc2c1=O)NCc1ccco1
IC50 [6]: 38.9 µM (not active)

CCCc1nc2sc3ccccc3c(=O)c2c(=O)n1Cc1ccc(OC)cc1
IC50 [5]: > 100 µM (active)

COc1ccc(OC)c(C(=O)c2coc3ccc(O)cc23)c1
IC50 [6]: > 93.1 µM (not active)
